Experimental data reported in US20200009173A1, “TRIAZOLE-CONTAINING MACROLIDES AND OPHTHALMIC USES THEREFOR” (Tetard, Inc., priority 2017, published 2020).
Converted amounts (≈) assume the structure as drawn. Like-named read-outs stand apart in the source and are kept apart here.

How the values were obtained:
log P = format: physicochemical
Experimental: Formulated compounds are tested for their transverse diffusive ability through the membrane. Diffusion through biological membranes is directly correlated to the formulation excipients, its physical state (suspension, solution, emulsion, etc.) and its log P. […] For compounds with log P>3, the compound typically permeates the lipid epithelium of the cornea, only to be hindered by the hydrophilic stroma. For an indication like blepharitis, high corneal concentrations achieved with repeat dosing will result in a drug depot, acting like a sustained release system.

Chlamydophila pneumoniae = assay: MIC, Chlamydophila pneumoniae (10 strains); format: cell-based
Streptococcus pyogenes = assay: MIC, Streptococcus pyogenes; format: cell-based
Ureaplasma urealyticum = assay: MIC, Ureaplasma urealyticum; format: cell-based; conditions: N = 10
[1] = Corneal permeability, Franz-Cell Diffusion Apparatus; format: in vitro ADME; conditions: bovine (calf), pH 7
Experimental: EXAMPLE. Corneal Permeability. Corneal permeability is determined using conventional protocols. Briefly, corneal permeability is determined on freshly excised bovine (calf) cornea using a Franz-Cell Diffusion Apparatus generally with n=3/group. Freshly excised calf cornea are stored until use in hydrating solution containing glutathione and buffer. The Apparatus includes a donor chamber on the top where a predetermined volume of the formulation is pipetted and a jacketed receptor cell with a sampling side arm. The joint between the donor and receptor cell is upward-convex, mimicking the shape of the cornea. The corneal membrane is placed on the ball joint with the cornea facing the donor chamber. The Apparatus is clamped to secure the cells with the donor and receptor chambers aligned. […] The volume is recorded. […] Test samples are added in rapid succession by depositing 200 μL of the formulation into each donor chamber using a calibrated pipet and the times recorded. […] Flux can be calculated by the formula: J=Q/(A·t), where Q is the quantity (micrograms) of compound traversing the membrane in time t (minutes), and A is the area of exposed membrane in cm^2. […] After completion of the diffusion, corneas are weighed to determine the quantity of bound test compound in the cornea, and the corneal thicknesses of each cornea is measured at the point of diffusion (the center) using Vernier calipers. […]

Peptostreptococcus spp. = assay: MIC, Peptostreptococcus spp.; format: cell-based; conditions: N = 10
Streptococcus pneumoniae = assay: MIC, Streptococcus pneumoniae (150 strains); format: cell-based
[2] = tested on: phagocytized L. pneumophila; format: cell-based
Mycoplasma pneumoniae = assay: MIC, Mycoplasma pneumoniae (38 strains); format: cell-based
Corynebacterium spp. = assay: MIC, Corynebacterium spp.; format: cell-based; conditions: N = 10
P. Acnes = assay: MICs of solithromycin and comparator drugs against P. acnes; format: cell-based
Description: EXAMPLE. The formulations described herein show overall higher potency against ocular pathogens than commercial standards. MICs (μg/ml) of Solithromycin and Comparator Drugs against P. Acnes (51 Species)

CA-MRSA = assay: MIC, CA-MRSA; format: cell-based, Staphylococcus aureus; conditions: N = 30
[3] = tested on: phagocytized L. monocytogenes; assay: Activity against phagocytized L. monocytogenes; format: cell-based
Streptococcus agalactiae = assay: MIC, Streptococcus agalactiae; format: cell-based; conditions: N = 535
Neisseria gonorrhoeae = assay: MIC, Neisseria gonorrhoeae; format: cell-based; conditions: N = 34
[4] = Cutibacterium acnes, 51 species

**Q.** For `CC[C@H]1OC(=O)[C@@](C)(F)C(=O)[C@H](C)[C@@H](O[C@@H]2O[C@H](C)C[C@H](N(C)C)[C@H]2O)[C@](C)(OC)C[C@@H](C)C(=O)[C@H](C)[C@H]2N(CCCCn3cc(-c4cccc(N)c4)nn3)C(=O)O[C@]12C` [CEM-101, solithromycin], which logP (log P) is on record?
**A.** The logP was 4.2.

**Q.** And the MIC90 (Chlamydophila pneumoniae; Chlamydia pneumoniae, 10 strains, read-out: MIC90)?
**A.** Its MIC90 is 250 ng/mL (≈ 296 nM).

**Q.** And the MIC50 (Chlamydophila pneumoniae; Chlamydia pneumoniae, N = 10)?
**A.** Its MIC50 is 250 ng/mL (≈ 296 nM).

**Q.** And the MIC90 (Chlamydophila pneumoniae; N = 10)?
**A.** Its MIC90 is 250 ng/mL (≈ 296 nM).

**Q.** And the “MIC Range” value (Chlamydophila pneumoniae; N = 10)?
**A.** Its value is 250 to 1000 ng/mL.

**Q.** What about the “MIC Range” value (Streptococcus pyogenes; N = 407 (CEM-101)) of the same compound?
**A.** Its value is ≤0.03-0.5 ^ μg/mL.

**Q.** And the MIC50 (Streptococcus pyogenes; Streptococcus pyogenes)?
**A.** Its MIC50 is ≤ 30 ng/mL.

**Q.** And the MIC90 (Streptococcus pyogenes; Streptococcus pyogenes, 100 strains)?
**A.** Its MIC90 is 30 ng/mL (≈ 35.5 nM).

**Q.** What about the MIC90 (Streptococcus pyogenes; Streptococcus pyogenes, N = 407 (CEM-101), N = 100 (azithromycin)) of the same compound?
**A.** Its MIC90 is ≤ 30 ng/mL.

**Q.** And the “MIC Range” value (Ureaplasma urealyticum)?
**A.** The value was 4 to 63 ng/mL.

**Q.** And the MIC50 (Ureaplasma urealyticum; Ureaplasma urealyticum)?
**A.** The MIC50 was 8 ng/mL (≈ 9.47 nM).

**Q.** And the MIC90 (Ureaplasma urealyticum; Ureaplasma urealyticum)?
**A.** Its MIC90 is 31 ng/mL (≈ 36.7 nM).

**Q.** And the “concentration in receptor fluid (therapeutically effective)” value ([1]; 1 h)?
**A.** Its value is ≥ 1000 ng/mL.

**Q.** What about the “time after administration at which drug was observed in receptor fluid” value [1] of the same compound?
**A.** The value was ≤ 1 h.

**Q.** What about the “MIC Range” value (Peptostreptococcus spp.) of the same compound?
**A.** The value was ≤0.03-0.25^ μg/mL.

**Q.** And the MIC50 (Peptostreptococcus spp.; Peptostreptococcus)?
**A.** The MIC50 was 60 ng/mL (≈ 71 nM).

**Q.** And the MIC90 (Peptostreptococcus spp.; Peptostreptococcus)?
**A.** The MIC90 was 250 ng/mL (≈ 296 nM).

**Q.** What about the MIC90 (Streptococcus pneumoniae; N = 150) of the same compound?
**A.** Its MIC90 is 250 ng/mL (≈ 296 nM).

**Q.** What about the “MIC Range” value (Streptococcus pneumoniae; N = 150) of the same compound?
**A.** The value was ≤8 to 500 ng/mL.

**Q.** And the MIC90 (Streptococcus pneumoniae; Streptococcus pneumoniae, 150 strains, read-out: MIC90)?
**A.** The MIC90 was 250 ng/mL (≈ 296 nM).

**Q.** And the MIC50 (Streptococcus pneumoniae; Streptococcus pneumoniae, N = 150)?
**A.** The MIC50 was 15 ng/mL (≈ 17.8 nM).

**Q.** And the “potency relative to azithromycin” value [2]?
**A.** Its value is 100 fold.

**Q.** What about the MIC90 (Mycoplasma pneumoniae; Mycoplasma, 38 strains, read-out: MIC90) of the same compound?
**A.** Its MIC90 is 0.125 ng/mL (≈ 0.148 nM).

**Q.** And the MIC50 (Mycoplasma pneumoniae; Mycoplasma, N = 38)?
**A.** Its MIC50 is 0.032 ng/mL (≈ 0.0379 nM).

**Q.** What about the MIC90 (Mycoplasma pneumoniae; N = 38) of the same compound?
**A.** Its MIC90 is 0.125 ng/mL (≈ 0.148 nM).

**Q.** What about the “MIC Range” value (Mycoplasma pneumoniae; N = 38) of the same compound?
**A.** Its value is ≤6.3e-05 to 500 ng/mL.

**Q.** What about the MIC50 (Corynebacterium spp.; Corynebacterium) of the same compound?
**A.** The MIC50 was 15 ng/mL (≈ 17.8 nM).

**Q.** What about the MIC90 (Corynebacterium spp.; Corynebacterium) of the same compound?
**A.** The MIC90 was 500 ng/mL (≈ 592 nM).

**Q.** What about the “MIC Range” value (Corynebacterium spp.) of the same compound?
**A.** The value was ≤0.008-16 ^ μg/mL.

**Q.** What about the “MIC Range” value (P. Acnes) of the same compound?
**A.** Its value is ≤2 to 250 ng/mL.

**Q.** And the MIC50 (P. Acnes; [4])?
**A.** Its MIC50 is 15 ng/mL (≈ 17.8 nM).

**Q.** What about the MIC90 (P. Acnes; [4]) of the same compound?
**A.** Its MIC90 is 60 ng/mL (≈ 71 nM).

**Q.** And the “MIC Range” value (CA-MRSA)?
**A.** Its value is 60 to 120 ng/mL.

**Q.** What about the MIC50 (CA-MRSA; Staphylococcus aureus, MRSA) of the same compound?
**A.** The MIC50 was 120 ng/mL (≈ 142 nM).

**Q.** And the MIC90 (CA-MRSA; Staphylococcus aureus, MRSA)?
**A.** Its MIC90 is 120 ng/mL (≈ 142 nM).

**Q.** And the “potency relative to azithromycin” value [3]?
**A.** The value was 50 fold.

**Q.** What about the “MIC Range” value (Streptococcus agalactiae) of the same compound?
**A.** The value was ≤0.03-0.5 ^ μg/mL.

**Q.** What about the MIC50 (Streptococcus agalactiae; Streptococcus agalactiae) of the same compound?
**A.** Its MIC50 is ≤ 30 ng/mL.

**Q.** What about the MIC90 (Streptococcus agalactiae; Streptococcus agalactiae) of the same compound?
**A.** Its MIC90 is ≤ 30 ng/mL.

**Q.** What about the “MIC Range” value (Neisseria gonorrhoeae) of the same compound?
**A.** The value was 30 to 250 ng/mL.

**Q.** And the MIC50 (Neisseria gonorrhoeae; Neisseria gonorrhoeae)?
**A.** The MIC50 was 60 ng/mL (≈ 71 nM).

**Q.** And the MIC90 (Neisseria gonorrhoeae; Neisseria gonorrhoeae)?
**A.** The MIC90 was 120 ng/mL (≈ 142 nM).
